Results published in ChEMBL document CHEMBL1201862, “PubChem BioAssay data set” (2004).
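Five concentrations, 48 hours, 96-well plates. GI50 = concentration required for 50% inhibition of growth.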 The source made the active and inactive calls. No stated cut-off is given here; in the data, active = GI50 up to about 1.1 µM and inactive = higher.

Columns and labels:
Test in all cases: NCI-60 cell line screen, 48 h
[1] = test system: LOX IMVI
[2] = test system: COLO 205
[3] = test system: SR
[4] = test system: HCC 2998
[5] = test system: HT-29
[6] = test system: NCI-H522
[7] = test system: HOP-92
[8] = test system: M14
[9] = test system: SNB-75
[10] = test system: OVCAR-4
[11] = test system: SF-295
[12] = test system: SK-MEL-28
[13] = test system: A498
[14] = test system: NCI-H226
[15] = test system: OVCAR-3
[16] = test system: K562
[17] = test system: HOP-62
[18] = test system: NCI/ADR-RES
[19] = test system: DU-145

Measured: GI50

C=C(CCCCC)CN1CCCC1C(C)=O (stereo not given)
inactive: [1] 18.8 µM | [2] 17.1 µM | [3] 14.9 µM | [4] 32.4 µM | [5] 29.6 µM | [6] 11.4 µM | [7] 20.3 µM | [8] 41.5 µM | [9] 24.7 µM | [10] 4.45 µM | [11] 26.8 µM | [12] 57.3 µM | [13] 35 µM | [14] 22 µM | [15] 27.9 µM | [16] 15 µM | [17] 22.3 µM

N#C/C(C(=O)Nc1ccccc1)=C(/N)N1CCCCC1
inactive: [1] > 100 µM | [2] > 100 µM | [3] > 100 µM | [4] > 100 µM | [5] > 100 µM | [7] > 100 µM | [8] 91 µM | [18] > 100 µM | [9] > 100 µM | [11] > 100 µM | [12] > 100 µM | [14] > 100 µM | [15] > 100 µM | [16] > 100 µM | [17] > 100 µM | [19] > 100 µM

CCOC(=O)/C(=C/c1cccc(Cl)c1)N(CC)CC
inactive: [1] 81.8 µM | [2] > 100 µM | [3] > 100 µM | [4] 79.1 µM | [5] > 100 µM | [6] 24.3 µM | [7] 25.5 µM | [8] 64.3 µM | [9] 70.5 µM | [10] 47.1 µM | [11] 46.3 µM | [12] 90.8 µM | [13] > 100 µM | [14] 37.8 µM | [16] 52.2 µM | [17] 29.9 µM

COc1cccc(C2CC23C(=O)NC(=O)NC3=O)c1 (stereo not given)
inactive: [1] > 100 µM | [2] > 100 µM | [3] > 100 µM | [4] > 100 µM | [5] > 100 µM | [6] > 100 µM | [7] > 100 µM | [8] > 100 µM | [10] > 100 µM | [11] > 100 µM | [12] > 100 µM | [13] > 100 µM | [14] > 100 µM | [15] > 100 µM | [16] > 100 µM | [17] > 100 µM

COc1ccc(COC2CC(OC)OC(C)C2OC(=O)c2ccccc2)cc1 (stereo not given)
inactive: [1] 22.6 µM | [2] 34.6 µM | [3] 19 µM | [4] 43.1 µM | [5] 16.6 µM | [6] 30.6 µM | [7] 50 µM | [8] 34.6 µM | [9] 38.3 µM | [10] 32.8 µM | [11] 38.5 µM | [12] 41.2 µM | [13] 61.5 µM | [14] 21.7 µM | [15] 31.9 µM | [16] 27.2 µM | [17] > 73.5 µM

O=C(c1ccccc1)n1cc(/C=C/[N+](=O)[O-])c2ccccc21
inactive: [1] 15.2 µM | [2] 24.7 µM | [3] 19.7 µM | [5] 44.2 µM | [6] 15.1 µM | [7] 23.8 µM | [8] 20.8 µM | [9] 32.7 µM | [10] 27 µM | [11] 42 µM | [12] 18.5 µM | [13] > 100 µM | [15] 51.8 µM | [16] 19.7 µM | [17] > 100 µM

NNC(=S)N/N=C(/C(=O)Nc1ccc([N+](=O)[O-])cc1)c1nc2ccc([N+](=O)[O-])cc2nc1O
inactive: [1] > 100 µM | [2] > 100 µM | [3] > 100 µM | [4] > 100 µM | [5] > 100 µM | [6] 36.5 µM | [7] > 100 µM | [8] > 100 µM | [9] > 100 µM | [10] > 100 µM | [11] > 100 µM | [12] > 100 µM | [13] > 100 µM | [14] > 100 µM | [16] > 100 µM

CC1(C)Oc2ccccc2[N+]([O-])=C1c1ccccc1
inactive: [2] > 100 µM | [3] > 100 µM | [4] > 100 µM | [5] > 100 µM | [6] > 100 µM | [7] > 100 µM | [8] > 100 µM | [9] > 100 µM | [10] > 100 µM | [11] > 100 µM | [12] > 100 µM | [13] > 100 µM | [15] > 100 µM | [16] > 100 µM | [17] > 100 µM

Cc1cc(S(=O)(=O)O)c(NC(=O)C(=O)Cc2cc(=O)oc3cc(O)ccc23)cc1Cl
inactive: [1] > 100 µM | [2] > 100 µM | [3] > 100 µM | [4] > 100 µM | [5] > 100 µM | [6] > 100 µM | [7] > 100 µM | [8] > 100 µM | [9] > 100 µM | [10] > 100 µM | [11] > 100 µM | [12] > 100 µM | [13] > 100 µM | [14] > 100 µM | [15] > 100 µM | [16] > 100 µM | [17] > 100 µM

O=C(O)CCCCCO
inactive: [1] > 100 µM | [2] > 100 µM | [3] > 100 µM | [4] > 100 µM | [5] > 100 µM | [6] > 100 µM | [7] > 100 µM | [8] > 100 µM | [9] > 100 µM | [10] > 100 µM | [11] > 100 µM | [12] > 100 µM | [13] > 100 µM | [14] > 100 µM | [15] > 100 µM | [16] > 100 µM | [17] > 100 µM

COc1ccc(NC(=O)/C(=N/O)C(C)=O)cc1
inactive: [1] 30.8 µM | [3] > 100 µM | [4] > 100 µM | [5] > 100 µM | [7] > 100 µM | [8] > 100 µM | [9] > 100 µM | [11] > 100 µM | [12] > 100 µM | [13] > 100 µM | [14] > 100 µM | [16] 47.5 µM | [17] > 100 µM

COc1ccc(O)cc1 [MEQUINOL]
inactive: [1] 49 µM | [2] > 100 µM | [3] 89.7 µM | [4] > 100 µM | [5] > 100 µM | [7] 44.1 µM | [8] 53.5 µM | [9] > 100 µM | [10] > 100 µM | [12] > 100 µM | [13] > 100 µM | [14] > 100 µM | [15] 44.8 µM | [16] 68.1 µM | [17] 40.8 µM

N#C/N=C(/N)NCN/C(N)=N\C#N
inactive: [2] 64.6 µM | [3] 27.1 µM | [4] > 100 µM | [5] > 100 µM | [6] > 100 µM | [7] > 100 µM | [8] > 100 µM | [9] > 100 µM | [10] 59.4 µM | [11] > 100 µM | [12] > 100 µM | [13] > 100 µM | [14] > 100 µM | [15] > 100 µM | [16] 43.7 µM | [17] > 100 µM
